Reference: publication PMC10578352, “Identification of a Protein Arginine Methyltransferase 7 (PRMT7)/Protein Arginine Methyltransferase 9 (PRMT9) Inhibitor” (Journal of Medicinal Chemistry, 2023)
One block for each compound: values may come before it.

Columns and labels:
PRMT7 = target: T1, PRMT7 (Homo sapiens, UniProt Q9NVM4); set-up: method as in PMID 35482954; conditions: heatmap of Figure 2; cited from earlier work
T1 construct: PRMT7 (residues 2–692, C-terminus); with an N-terminal His-tag; His (N); purchased Reaction Biology Corporation
T1 sequence (Q9NVM4 2-692): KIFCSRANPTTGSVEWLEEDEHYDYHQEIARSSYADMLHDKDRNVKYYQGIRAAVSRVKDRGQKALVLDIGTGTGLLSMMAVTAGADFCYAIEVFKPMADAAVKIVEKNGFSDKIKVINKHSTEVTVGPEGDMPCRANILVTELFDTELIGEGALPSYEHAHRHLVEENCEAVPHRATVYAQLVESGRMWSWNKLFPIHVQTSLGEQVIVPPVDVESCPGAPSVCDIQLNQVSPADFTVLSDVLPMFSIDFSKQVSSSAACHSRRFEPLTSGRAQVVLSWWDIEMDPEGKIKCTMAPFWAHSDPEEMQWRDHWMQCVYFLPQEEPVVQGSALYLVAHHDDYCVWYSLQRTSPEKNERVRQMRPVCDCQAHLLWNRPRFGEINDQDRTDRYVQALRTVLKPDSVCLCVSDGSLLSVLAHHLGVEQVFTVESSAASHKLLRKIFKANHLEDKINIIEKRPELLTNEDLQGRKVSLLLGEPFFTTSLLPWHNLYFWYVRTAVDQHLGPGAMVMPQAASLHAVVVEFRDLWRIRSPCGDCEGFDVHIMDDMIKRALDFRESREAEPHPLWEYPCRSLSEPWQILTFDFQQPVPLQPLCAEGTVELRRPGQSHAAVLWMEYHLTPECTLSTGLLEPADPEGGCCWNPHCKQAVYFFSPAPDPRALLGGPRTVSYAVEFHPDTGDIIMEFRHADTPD

PRMT8 = target: T2, PRMT8 (Homo sapiens, UniProt Q9NR22); assay: HotSpot radioisotope-based filter assay, PRMT8; type: biochemical
T2 construct: (residues 61–394, C-terminus); with C- and N-terminal His-tags; His (N); His (C); purchased Reaction Biology Corporation
T2 sequence (Q9NR22 61-394): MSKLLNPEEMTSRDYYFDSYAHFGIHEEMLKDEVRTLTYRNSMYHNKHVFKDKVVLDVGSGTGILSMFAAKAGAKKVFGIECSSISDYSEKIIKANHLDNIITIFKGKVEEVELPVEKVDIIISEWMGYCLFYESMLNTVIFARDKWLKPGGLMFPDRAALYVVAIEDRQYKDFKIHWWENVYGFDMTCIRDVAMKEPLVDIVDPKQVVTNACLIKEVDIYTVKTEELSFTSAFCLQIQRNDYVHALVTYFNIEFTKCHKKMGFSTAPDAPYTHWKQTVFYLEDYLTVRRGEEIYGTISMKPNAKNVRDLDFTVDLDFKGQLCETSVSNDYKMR
Procedure: (§1) Then, ^3H-SAM (final concentration of 1 μM) was delivered into the reaction mixture to initiate the reaction. After incubation for 60 min at 30 °C, the reaction mixture was delivered to filter-paper for detection (as assessed by scintillation). Data were analyzed using Excel and GraphPad Prism 6.0 software (GraphPad Software Inc., San Diego, CA) for IC50 curve fits using sigmoidal dose vs response - variable slope (four parameters) equations.

PRMT4 = target: T3, PRMT4 (Homo sapiens, UniProt Q86X55); assay: HotSpot radioisotope-based filter assay, PRMT4; type: biochemical
T3 construct: PRMT4 (residues 2–608, C-terminus); with an N-terminal GST-tag; GST (N); purchased Reaction Biology Corporation
T3 sequence (Q86X55 2-608): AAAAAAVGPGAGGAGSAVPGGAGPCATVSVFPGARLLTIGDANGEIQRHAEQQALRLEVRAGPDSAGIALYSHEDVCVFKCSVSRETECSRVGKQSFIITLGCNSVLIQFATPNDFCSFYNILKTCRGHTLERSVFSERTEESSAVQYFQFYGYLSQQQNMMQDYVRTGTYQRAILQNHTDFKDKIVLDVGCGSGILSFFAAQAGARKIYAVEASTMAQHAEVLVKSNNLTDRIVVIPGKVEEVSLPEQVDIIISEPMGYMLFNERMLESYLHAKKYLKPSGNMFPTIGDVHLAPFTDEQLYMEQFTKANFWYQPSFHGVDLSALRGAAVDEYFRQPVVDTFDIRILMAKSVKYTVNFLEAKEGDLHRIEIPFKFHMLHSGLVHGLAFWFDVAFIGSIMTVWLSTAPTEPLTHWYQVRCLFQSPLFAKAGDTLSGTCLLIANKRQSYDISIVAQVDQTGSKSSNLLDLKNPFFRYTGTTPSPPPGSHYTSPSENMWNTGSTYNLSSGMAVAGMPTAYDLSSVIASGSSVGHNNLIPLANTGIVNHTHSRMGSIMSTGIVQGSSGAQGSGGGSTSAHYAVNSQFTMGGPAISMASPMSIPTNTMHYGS
Procedure: as §1

PRMT6 = target: T4, PRMT6 (Homo sapiens, UniProt Q96LA8); assay: HotSpot radioisotope-based filter assay, PRMT6; type: biochemical
T4 construct: PRMT6 (residues 2–375, C-terminus); with an N-terminal GST-tag; GST (N); purchased Reaction Biology Corporation
T4 sequence (Q96LA8 2-375): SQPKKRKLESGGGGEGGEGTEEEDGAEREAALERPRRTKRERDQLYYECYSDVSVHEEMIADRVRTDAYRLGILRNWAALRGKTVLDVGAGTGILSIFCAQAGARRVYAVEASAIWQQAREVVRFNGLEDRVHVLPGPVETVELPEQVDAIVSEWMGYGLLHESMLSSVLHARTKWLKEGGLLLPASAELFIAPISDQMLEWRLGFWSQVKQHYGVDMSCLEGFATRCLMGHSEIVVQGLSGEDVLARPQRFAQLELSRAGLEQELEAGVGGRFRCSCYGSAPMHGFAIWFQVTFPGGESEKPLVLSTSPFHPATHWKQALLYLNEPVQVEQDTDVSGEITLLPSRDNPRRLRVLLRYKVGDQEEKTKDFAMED
Procedure: as §1

PRMT5/MEP50 complex = target: T5, PRMT5/MEP50 complex (Homo sapiens, UniProt O14744); assay: HotSpot radioisotope-based filter assay, PRMT5; type: biochemical
T5 construct: residues PRMT5 2–637, C-terminus, and MEP50 2–342, C-terminus; FLAG (N); purchased Reaction Biology Corporation
T5 sequence (O14744 2-637): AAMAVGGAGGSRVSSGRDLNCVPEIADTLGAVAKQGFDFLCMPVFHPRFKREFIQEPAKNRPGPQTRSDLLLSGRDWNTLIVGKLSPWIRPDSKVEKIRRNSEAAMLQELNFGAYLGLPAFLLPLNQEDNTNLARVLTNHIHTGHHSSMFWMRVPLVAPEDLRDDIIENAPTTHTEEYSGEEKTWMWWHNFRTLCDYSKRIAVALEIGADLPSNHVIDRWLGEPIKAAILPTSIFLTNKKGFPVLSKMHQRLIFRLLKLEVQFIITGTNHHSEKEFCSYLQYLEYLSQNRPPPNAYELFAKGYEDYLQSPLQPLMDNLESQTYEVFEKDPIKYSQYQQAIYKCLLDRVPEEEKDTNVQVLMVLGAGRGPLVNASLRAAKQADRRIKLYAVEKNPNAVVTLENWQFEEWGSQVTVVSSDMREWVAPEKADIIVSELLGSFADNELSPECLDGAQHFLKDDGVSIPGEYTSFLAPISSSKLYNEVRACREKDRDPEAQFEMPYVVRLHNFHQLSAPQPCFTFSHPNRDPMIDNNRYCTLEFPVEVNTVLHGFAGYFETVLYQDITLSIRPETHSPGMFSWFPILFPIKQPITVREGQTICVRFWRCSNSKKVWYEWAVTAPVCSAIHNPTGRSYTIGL
T5 sequence (Q9BQA1 2-342 partner limits assumed): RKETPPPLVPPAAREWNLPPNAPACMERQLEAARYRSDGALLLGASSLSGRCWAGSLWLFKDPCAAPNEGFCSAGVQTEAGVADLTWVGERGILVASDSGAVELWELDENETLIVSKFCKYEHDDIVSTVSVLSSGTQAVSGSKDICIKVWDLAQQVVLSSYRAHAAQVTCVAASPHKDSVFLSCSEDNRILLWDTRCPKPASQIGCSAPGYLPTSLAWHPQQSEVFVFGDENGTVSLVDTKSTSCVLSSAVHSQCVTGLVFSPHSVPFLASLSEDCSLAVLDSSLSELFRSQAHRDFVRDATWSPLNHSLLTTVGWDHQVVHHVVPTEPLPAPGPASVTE
Procedure: as §1

[1] = target: T6, EZH2/KMT6 (5 component complex) (Homo sapiens, UniProt Q15910); assay: HotSpot KMT activity assay, EZH2; type: biochemical; conditions: read-out: % EZH2 residual activity
T6 construct: including EZH2 residues 2–746, AEBP2 2–517, EED 2–441; His (N); purchased Reaction Biology Corporation
T6 sequence (Q15910 2-746): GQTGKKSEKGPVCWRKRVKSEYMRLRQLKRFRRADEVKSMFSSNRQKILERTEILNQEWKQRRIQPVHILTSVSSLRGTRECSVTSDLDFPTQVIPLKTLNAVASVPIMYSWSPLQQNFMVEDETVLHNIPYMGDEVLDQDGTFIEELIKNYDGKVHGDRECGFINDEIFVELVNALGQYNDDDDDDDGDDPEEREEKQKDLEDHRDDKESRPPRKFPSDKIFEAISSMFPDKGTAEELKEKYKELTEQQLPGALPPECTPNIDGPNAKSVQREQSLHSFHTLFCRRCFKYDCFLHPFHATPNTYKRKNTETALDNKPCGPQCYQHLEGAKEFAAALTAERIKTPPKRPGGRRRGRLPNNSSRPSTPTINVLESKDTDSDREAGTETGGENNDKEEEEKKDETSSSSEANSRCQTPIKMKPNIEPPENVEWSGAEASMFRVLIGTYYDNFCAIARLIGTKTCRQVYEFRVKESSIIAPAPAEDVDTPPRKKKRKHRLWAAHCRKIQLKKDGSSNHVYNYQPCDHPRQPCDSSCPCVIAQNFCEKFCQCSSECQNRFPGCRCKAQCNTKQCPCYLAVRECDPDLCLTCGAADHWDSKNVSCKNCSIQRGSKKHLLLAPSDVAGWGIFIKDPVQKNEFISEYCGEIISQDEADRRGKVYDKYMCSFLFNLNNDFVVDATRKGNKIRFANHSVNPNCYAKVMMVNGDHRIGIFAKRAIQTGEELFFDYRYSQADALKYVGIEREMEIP
T6 sequence (Q6ZN18 2-517 partner limits assumed): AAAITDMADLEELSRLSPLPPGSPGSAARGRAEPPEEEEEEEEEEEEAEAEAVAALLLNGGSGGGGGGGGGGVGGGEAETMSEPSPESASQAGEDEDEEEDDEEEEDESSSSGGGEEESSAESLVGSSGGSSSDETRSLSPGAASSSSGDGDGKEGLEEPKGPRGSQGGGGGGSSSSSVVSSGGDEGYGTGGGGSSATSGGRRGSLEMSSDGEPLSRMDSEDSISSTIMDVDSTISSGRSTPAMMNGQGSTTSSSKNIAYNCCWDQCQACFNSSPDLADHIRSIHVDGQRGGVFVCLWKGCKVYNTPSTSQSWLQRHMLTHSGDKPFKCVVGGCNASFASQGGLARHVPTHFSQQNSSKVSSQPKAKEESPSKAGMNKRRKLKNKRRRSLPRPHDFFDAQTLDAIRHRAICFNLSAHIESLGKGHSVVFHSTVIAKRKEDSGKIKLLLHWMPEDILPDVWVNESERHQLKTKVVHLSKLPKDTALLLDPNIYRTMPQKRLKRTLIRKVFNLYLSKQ
T6 sequence (O75530 2-441 partner limits assumed): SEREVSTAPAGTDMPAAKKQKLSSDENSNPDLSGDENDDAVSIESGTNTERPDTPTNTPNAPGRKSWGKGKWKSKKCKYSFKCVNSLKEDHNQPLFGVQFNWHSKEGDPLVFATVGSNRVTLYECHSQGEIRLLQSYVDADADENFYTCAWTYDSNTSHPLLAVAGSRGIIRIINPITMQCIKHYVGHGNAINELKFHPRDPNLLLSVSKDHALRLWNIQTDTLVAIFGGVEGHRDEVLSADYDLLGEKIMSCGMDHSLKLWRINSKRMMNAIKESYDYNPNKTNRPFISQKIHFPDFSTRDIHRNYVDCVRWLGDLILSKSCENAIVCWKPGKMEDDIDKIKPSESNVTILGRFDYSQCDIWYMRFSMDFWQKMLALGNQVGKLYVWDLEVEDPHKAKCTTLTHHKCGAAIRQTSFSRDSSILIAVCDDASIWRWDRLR
T6 sequence (Q09028 2-425 partner limits assumed): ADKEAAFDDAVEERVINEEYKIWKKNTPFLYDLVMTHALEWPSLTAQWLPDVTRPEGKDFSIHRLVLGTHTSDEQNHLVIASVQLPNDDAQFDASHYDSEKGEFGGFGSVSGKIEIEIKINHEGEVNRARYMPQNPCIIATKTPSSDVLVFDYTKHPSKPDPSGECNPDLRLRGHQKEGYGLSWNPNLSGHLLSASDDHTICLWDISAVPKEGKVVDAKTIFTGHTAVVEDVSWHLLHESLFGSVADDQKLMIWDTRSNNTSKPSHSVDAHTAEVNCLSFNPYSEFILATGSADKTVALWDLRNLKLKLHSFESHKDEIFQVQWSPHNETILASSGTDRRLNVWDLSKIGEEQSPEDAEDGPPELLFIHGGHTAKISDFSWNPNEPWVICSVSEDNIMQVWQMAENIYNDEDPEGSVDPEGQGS
T6 sequence (Q15022 2-739 partner limits assumed): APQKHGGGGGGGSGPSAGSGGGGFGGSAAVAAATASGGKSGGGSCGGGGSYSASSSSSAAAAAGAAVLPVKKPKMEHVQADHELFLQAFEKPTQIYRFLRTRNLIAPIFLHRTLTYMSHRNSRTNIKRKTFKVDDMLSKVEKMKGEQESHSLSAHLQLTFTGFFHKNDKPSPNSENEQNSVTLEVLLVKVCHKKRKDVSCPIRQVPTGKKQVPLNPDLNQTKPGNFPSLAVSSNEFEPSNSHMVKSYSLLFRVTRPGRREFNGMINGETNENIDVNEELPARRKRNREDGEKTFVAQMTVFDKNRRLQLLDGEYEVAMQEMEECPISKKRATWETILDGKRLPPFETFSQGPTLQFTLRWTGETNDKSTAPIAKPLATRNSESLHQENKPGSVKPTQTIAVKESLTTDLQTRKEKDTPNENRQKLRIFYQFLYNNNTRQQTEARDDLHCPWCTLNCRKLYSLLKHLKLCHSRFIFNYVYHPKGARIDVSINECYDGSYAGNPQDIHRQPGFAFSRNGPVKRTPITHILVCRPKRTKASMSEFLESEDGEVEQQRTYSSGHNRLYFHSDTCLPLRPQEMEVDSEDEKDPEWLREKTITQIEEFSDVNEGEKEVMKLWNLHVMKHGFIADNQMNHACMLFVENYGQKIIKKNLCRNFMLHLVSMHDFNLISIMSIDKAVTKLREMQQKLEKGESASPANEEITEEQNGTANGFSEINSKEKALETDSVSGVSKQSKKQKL
Procedure: Then, ^3H-SAM (final concentration 1 μM) was delivered into the reaction mixture to initiate the reaction. After incubation for 60 min at 30 °C, the reaction mixture was delivered to filter paper for detection (as assessed by scintillation). […] No inhibitor control (DMSO) was considered as showing 100% enzyme activity. Data were analyzed using Excel and GraphPad Prism 6.0 software (GraphPad Software Inc., San Diego, CA). Values obtained for each compound are mean ± SD determined for two separate experiments.

[2] = Figure 2, from IC50 values of ref 31

SMILES: COC(=O)c1cc(O)c2cc(NC(=O)NCCCNC(=N)NC[C@H]3O[C@@H](n4cnc5c(N)ncnc54)[C@H](O)[C@@H]3O)ccc2c1 [1a]
IC50 (PRMT7): 315 nM

IC50 (PRMT8; 5 μM histone H4, 3H-SAM 1 μM): 1970 nM
IC50 (PRMT4; 5 μM histone H3, 3H-SAM 1 μM): 1460 nM
IC50 (PRMT6; 5 μM GST-GAR, 3H-SAM 1 μM): 49700 nM
IC50 (PRMT5/MEP50 complex; 5 μM histone H2A, 3H-SAM 1 μM): 1010 nM
remaining activity at 10 µM ([1]; 10 μM): 104.5 ± 0.99%
remaining activity at 100 µM ([1]; 100 μM): 77.6 ± 3.43%
SMILES: COC(=O)c1cc(O)c2cc(NC(=O)NCCCNC(=N)NC[C@H]3O[C@@H](n4cnc5c(N)ncnc54)[C@H](O)[C@@H]3O)cc(C(F)(F)F)c2c1 [1j, Methyl 6-(3-(3-(3-(((2R,3S,4R,5R)-5-(6-Amino-9H-purin-9-yl)-3,4-dihydroxytetrahydrofuran-2-yl)methyl)guanidino)propyl)ureido)-4-hydroxy-8-(trifluoromethyl)-2-naphthoate]

selectivity index for PRMT7 over PRMT8 (PRMT8; [2]): 27 fold
selectivity index for PRMT7 over PRMT4 (PRMT4; [2]): 2 fold
selectivity index for PRMT7 over PRMT6 (PRMT6; [2]): 455 fold
selectivity index for PRMT7 over PRMT5 (PRMT5/MEP50 complex; [2]): 234 fold
SMILES: COC(=O)c1cc(O)c2cc(NC(=O)NCCCCCNC(=N)NC[C@H]3O[C@@H](n4cnc5c(N)ncnc54)[C@H](O)[C@@H]3O)ccc2c1 [1c]
